What was measured:
L1210 leukemia cells = assay: Anti-leukemia activity against lymphoid leukemia L1210 in mice (survival); type: in vivo; conditions: Example 54; i.p. once a day; dose 1, 10, 20 mg/kg/day, group not stated
Procedure: (§1) Animals: Adult DBA/2J male mice, 6 to 8 weeks old. All animals weighed approximately 25 g when used in experiments. Mice were assigned randomly to treatment and control groups. Each member of which received identical dosed (i.p.) of PK or 0.9% NaCl solution for all injections. Volumes were 0.01 ml/g body weight.
(§2) Tumor: L1210 or P388 leukemia cells induced in mice by inoculation with L1210 or P388 leukemia cells (1.0×10^5).
(§3) The leukemia cells were passed i.p. weekly. L1210 or P388 cells were cultured at 37° C. in RPMI-1640 medium (GIBCO) without antibiotics and supplemented with 10% fetal calf serum.
(§4) After the tumor implantation (1×10^5 leukemia cells), PK was injected intraperitoneally once a day. The treatment was started between the end of 2nd and 6th day after inoculation. Dose of PK was 25 mg/kg/day for PK groups. Control mice were treated with same value of 0-9% NaCl. Anti-leukemia activity was expressed as T/C %. T is median survival days of treated group and C is that of control group. A T/C value was greater that 100% means the treated mice is surviving longer than the control mice. […] The statistical significance of data was determined by student's test. […]
(§5) After the tumor implantation (1×10^5 leukemia cells), PK-HHT-SSL was injected intraperitoneally once a day. […] Anti-leukemia activity was expressed as T/C %. […] The statistical significance of data was determined by student's test.

P388 leukemia cells = assay: Anti-leukemia activity against P388 lymphocytic leukemia in mice (survival); type: in vivo; conditions: Example 54; i.p. once a day; dose 1, 10, 20 mg/kg/day, group not stated
Procedure: as §1, §2, §3, §4, §5

sarcoma-180 solid tumors = assay: Effect on sarcoma-180 solid tumors in mice (survival); type: in vivo; conditions: Example 54; percentage survival, 30 days observation after tumor cell inoculation
[1] = tested on: malignant melanocarcinoma B16; assay: Inhibition of tumor cell proliferation, B16; type: cell-based, human; conditions: Mus musculus; 1 μg/ml, 72 hours
Procedure: (§6) Human tumor cell lines: Hela leukemia HL-60, malignant melanocarcinoma B16, oral epidermoid carcinoma (KB), lung carcinoma (A549), breast carcinoma MCF-7, adenocarcinoma of stomach.
(§7) Animal tumor cell lines: Walker carcinoma, LLC-WRC-256, malignant melanoma (RMMI 1846), 3T3, and S-180 sarcoma (CCRF-180). All lines were routinely cultured in the RPMI1640 medium supplemented 20% fetal calf serum. The experiment was carried out in 96 microplate, each well had 5×10^5 cells and given desired concentration of 1 μg/ml (1×10^−6 g/ml) drug. Then the plate was incubated at 37° C. in an atmosphere of humidified air enriched with 5 percent carbon dioxide for 72 hours.
(§8) Inhibition percent rate of tumor cell proliferation was obtained according to the bellow formula. [formula]

breast carcinoma MCF-7 = assay: Inhibition of tumor cell proliferation, MCF-7; type: cell-based; conditions: Homo sapiens, MCF7; 1 μg/ml, 72 hours
Procedure: as §6, §7, §8

tyrosine kinase (TK) = assay: Tyrosine kinase (TK) activity of HL-60 leukemia cells; type: cell-based, human; conditions: 24 hours
Procedure: H-60 leukemia cells were plated at a density of 5×10^5 cells in […], and divided control and treatments groups for incubation 24 hours at 37° C. with 5% CO2. The cells were collected and washed twice with phosphate-buffered saline and re-suspended at density of 10^6 cells/ml in 5 mM HEPEs buffer (pH 7.4). The cells were then re-suspended in 1 ml of buffer containing 5 mM HEPES (pH 7.6), 1 mM MgCl2 and 1 mM EDTA, then placed on ice bath. The cell membrane was disrupted by ultra sound and centrifuged at 1000×g for 10 minutes. The supernatant was ultra centrifuged at 30,000×g for 30 minutes at 4° C. The pellet was re-suspended in 0.3 ml of buffer containing 25 mM HEOES, centrifuged at 12,000×g for 5 minutes. The resulting supernatant was used for TK assay. Content of protein was determined. 10 μg of protein placed in 20 mM HEPES (pH 7.6), 15 mM MgCl2, 10 mM ZnCl2 and 5% (v/v) Nonidet P-40. After 5 minutes incubation at 25° C., the reaction was initiated by the addition of 25 μM [γ^32P] ATP (3 ci/mmol). After 10 minutes, the reaction was stopped by the addition of 20 mM cold ATP. […] Radioactivity was determined by liquid scintillation spectrometry. The net TK activity was determined after correcting for endogenous TK activity.

all cancer cells = assay: Inhibition of tumor cell proliferation, all cancer cells (statement); type: cell-based
Procedure: as §6
as §7, with “hours. Concentration of ELE or PK-ELE-NP is 50 ng/ml.” for “hours.”
as §8

Row | Compound | Survival time (L1210 leukemia cells) | Survival time (P388 leukemia cells) | Mean survival (%) (sarcoma-180 solid tumors) | inhibition at 1 µg/mL [1] | inhibition at 1 µg/mL (breast carcinoma MCF-7) | % of control activity (TK) (tyrosine kinase (TK); Concentration 10^−6 M) | % of control activity (TK) (tyrosine kinase (TK); Concentration 10^−7 M) | Percent rates of inhibition (all cancer cells)
1 | COC(=O)C[C@](O)(CCCC(C)(C)O)C(=O)O[C@@H]1C(OC)=C[C@]23CCCN2CCc2cc4c(cc2[C@H]13)OCO4 [HHT, Homoharringtonine] | 15.6 ± 2.8 days | 19.8 ± 4.2 days | 58.6% | 73.8 ± 8.1% | 78.5 ± 7.9% | 20.8% | 14.8% | –
2 | Eelemene | – | – | – | – | – | – | – | more than 70%

— patent US20040192641A1, “Special preparation of anticancer drugs made by novel nanotechnology” (priority 2003, published 2004)
